According to US5925769A, “Acetylenic 1,5-diarylpyrazoles as antiinflammatory agents” (Ortho Pharmaceutical, Corp., priority 1998, dated 1999):
pIC50: −log10 of the molar value.

How the values were obtained:
[1] = molecular target: T1, Sheep seminal vesicle (SSV) cyclooxygenase (Ovis aries, UniProt P05979); experiment: Procedure I: inhibition of sheep seminal vesicle (SSV) cyclooxygenase; assay type: biochemical; settings: SSV cyclooxygenase; for pIC50: read-out: Proc. I IC50; for inhibition at 10 µM: 20 min, @ 10 .quadrature.M, read-out: Proc. I % inhibition
T1 construct: Sheep seminal vesicle (SSV) cyclooxygenase (95% pure); purchased Biomol (Plymouth Meeting, PA); host or cells: sheep seminal vesicle
T1 sequence (P05979 25-600): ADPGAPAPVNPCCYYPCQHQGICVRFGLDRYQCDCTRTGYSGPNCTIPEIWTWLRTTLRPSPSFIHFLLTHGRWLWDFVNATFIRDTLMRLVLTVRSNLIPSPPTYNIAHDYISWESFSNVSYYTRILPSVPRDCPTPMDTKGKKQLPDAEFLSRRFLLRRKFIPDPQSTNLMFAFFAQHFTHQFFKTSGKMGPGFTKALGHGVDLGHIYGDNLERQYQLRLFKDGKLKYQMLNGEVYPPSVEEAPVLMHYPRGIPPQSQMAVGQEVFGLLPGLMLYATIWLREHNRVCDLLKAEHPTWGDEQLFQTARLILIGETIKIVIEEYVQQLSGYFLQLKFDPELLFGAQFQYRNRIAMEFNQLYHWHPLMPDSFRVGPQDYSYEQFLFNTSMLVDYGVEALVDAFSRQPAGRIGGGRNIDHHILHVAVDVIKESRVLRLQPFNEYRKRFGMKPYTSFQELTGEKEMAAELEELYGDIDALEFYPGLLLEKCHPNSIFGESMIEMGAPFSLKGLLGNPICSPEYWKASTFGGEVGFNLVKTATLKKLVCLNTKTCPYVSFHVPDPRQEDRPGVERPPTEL
Method: Procedure I was used to determine the ability of the compounds to inhibit cyclooxygenase. […] The enzyme was divided into 200 μL aliquots, snap frozen with liquid N2, and stored at -70° C. until immediately prior to use. […] The tubes were mixed on a vortex shaker, preincubated for 5 min at 37° C. prior to the initiation of the reaction. The reaction was started by the addition of [^14 C]-arachidonic acid (1-^14 C-AA, Amersham, Arlington Heights, Ill.) in 10 μL of methanol. Tubes were again vortexed and incubated in a water bath for 20 minutes after which the tubes were removed and the reaction stopped by acidification with the addition of 1 mL 2M formic acid. Lipophilic products were extracted with 3 mL chloroform and concentrated to dryness under N2. Each pellet was reconstituted with 40 μL of chloroform and spotted on a Whatman Silicon thin-layer chromatography plate and developed in a chromatography tank containing A-9 solvent (11:5:2:1 V:V:VV, ethyl acetate:trimethyl-pentane:acetic acid:double distilled-H2 O). Radioactive cyclooxygenase products (prostaglandin D2, prostaglandin E2, etc.) were measured using a Bioscan System 200 Imaging Scanner. Inhibition of enzyme activity was calculated by comparing the areas under the curve produced in the presence or absence of test compound.

CO [2] = molecular target: T2, CO (Rattus norvegicus, UniProt Q63921); experiment: Procedure II: CO activity in broken RBL-1 cells (homogenate supernatant); assay type: biochemical; settings: RBL-1 broken cell supernatant; for inhibition at 10 µM: 20 min, @ 10 .quadrature.M, read-out: Proc. II CO % inhibition; for pIC50: read-out: Proc. II CO IC50
T2 construct: the supernatant was saved as the source of enzymes; endogenous in cells; host or cells: RBL-1 (rat basophilic leukemia) cells
T2 sequence (Q63921 27-602): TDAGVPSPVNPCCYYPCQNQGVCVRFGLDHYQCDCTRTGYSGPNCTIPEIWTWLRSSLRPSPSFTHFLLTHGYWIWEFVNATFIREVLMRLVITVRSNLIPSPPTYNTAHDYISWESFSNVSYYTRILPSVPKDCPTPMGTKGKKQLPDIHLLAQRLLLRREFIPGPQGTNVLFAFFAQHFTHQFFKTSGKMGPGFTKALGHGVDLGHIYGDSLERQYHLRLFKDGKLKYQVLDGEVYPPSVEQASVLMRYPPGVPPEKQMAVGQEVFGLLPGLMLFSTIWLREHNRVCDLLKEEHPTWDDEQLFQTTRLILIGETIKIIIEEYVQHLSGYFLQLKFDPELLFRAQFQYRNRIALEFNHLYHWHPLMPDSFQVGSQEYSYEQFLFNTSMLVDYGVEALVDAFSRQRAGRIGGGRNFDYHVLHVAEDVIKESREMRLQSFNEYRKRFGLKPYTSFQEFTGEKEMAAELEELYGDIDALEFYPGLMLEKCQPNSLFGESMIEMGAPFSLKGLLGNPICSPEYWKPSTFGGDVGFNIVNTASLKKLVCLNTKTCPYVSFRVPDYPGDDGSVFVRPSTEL
Method: (§1) Procedure II was used to assess LO and CO activity. Rat basophilic leukemia cells (RBL-1; 5×10^7 viable cells/mL) were disrupted by homogenization on ice (four 20 sec bursts) with a Brinkman polytron. […] The homogenate was then centrifuged at 9,220×g for 48 minutes at 4° C. The pellet was discarded and the supernatant was saved as the source of enzymes. The supernatant was pre-incubated for five minutes at 37° C. in the presence of 2 mM of CaCl2 and compound or vehicle (1% DMSO). The conversion of AA into products by CO and LO was initiated by adding 10 μL (50 μCi) of 1-^14 C-AA to each tube and incubated at 37° C. for 20 minutes. The reaction was stopped by adjusting the pH of each sample to 3 to 3.5 with 2M formic acid. Samples were extracted with three volumes of chloroform to isolate the products of 5-LO formed during the reaction. Fractions were dried under nitrogen, then resuspended in 40 μL of chloroform and spotted onto silica gel HL plates. The plates were developed in A-9 solvent. The dried plates were analyzed using a Bioscan Imaging TLC scanner to determine the percentage of radiolabelled AA converted to 5-HETE (LO product) in each sample. The percentage of inhibition was calculated by:
(§2) [1-(5-HETE test)]/5-HETE control×100=% inhibition
(§3) The IC50 was determined using a curve fit in Cricket Graph (Computer Associated), which provided the equation of the regressed line used in the calculation.

5-LO [3] = molecular target: T3, 5-LO (Rattus norvegicus, UniProt P12527); experiment: Procedure II: 5-LO activity (5-HETE) in broken RBL-1 cells (homogenate supernatant); assay type: biochemical; settings: RBL-1 broken cell supernatant; for inhibition at 10 µM: 20 min, @ 10 .quadrature.M, read-out: Proc. II 5-LO % inhibition; for pIC50: read-out: Proc. II 5-LO IC50
T3 construct: the supernatant was saved as the source of enzymes; endogenous in cells; host or cells: RBL-1 (rat basophilic leukemia) cells
T3 sequence (P12527 1-673): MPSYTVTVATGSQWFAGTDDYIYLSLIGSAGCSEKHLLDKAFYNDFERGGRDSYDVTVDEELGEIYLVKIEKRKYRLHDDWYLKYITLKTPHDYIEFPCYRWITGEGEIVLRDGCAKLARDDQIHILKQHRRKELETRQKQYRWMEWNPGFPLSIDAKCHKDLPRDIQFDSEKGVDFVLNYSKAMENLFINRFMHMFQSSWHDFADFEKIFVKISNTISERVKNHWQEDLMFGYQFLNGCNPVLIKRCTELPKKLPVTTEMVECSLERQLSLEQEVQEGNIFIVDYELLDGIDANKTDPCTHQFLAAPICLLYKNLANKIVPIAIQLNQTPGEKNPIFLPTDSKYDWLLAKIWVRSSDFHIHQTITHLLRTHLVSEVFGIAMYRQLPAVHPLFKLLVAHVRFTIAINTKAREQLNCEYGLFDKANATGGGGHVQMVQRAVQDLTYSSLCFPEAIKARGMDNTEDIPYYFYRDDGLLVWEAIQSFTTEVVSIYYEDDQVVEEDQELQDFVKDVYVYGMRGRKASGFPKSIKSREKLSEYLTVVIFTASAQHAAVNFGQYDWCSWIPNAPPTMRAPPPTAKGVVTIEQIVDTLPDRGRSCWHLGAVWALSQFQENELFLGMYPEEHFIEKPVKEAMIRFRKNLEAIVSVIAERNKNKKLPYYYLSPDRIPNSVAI
Method: as §1, §2, §3

CO [4] = molecular target: T2, CO; experiment: Procedure III: CO (PgD2) in intact RBL-1 cells; assay type: cell-based; settings: calcium ionophore A 23187, read-out: Proc. III CO IC50
Method: as §3
(§4) In Procedure III, the ability to inhibit 5-LO and CO in intact RBL-1 cells was also evaluated. […] Cells were collected by centrifugation, washed once in HBSS, and resuspended at a concentration of 1×10^5 cells/mL. Cells were incubated in the presence of vehicle or drug then centrifuged at 800×g for 10 minutes at 4° C. The supernatant was removed by aspiration and the cells were resuspended in 0.5 mL of HBSS. […] The conversion of AA to 5-LO products was initiated by the addition of 10 μL (50 μCi) of 1-^14 C-AA. Products were isolated by acidification and extraction, followed by thin layer chromatography analysis as described above. Radioactive areas corresponding to authentic 5-LO (5-HETE) and CO (PgD2) products were quantitated by the Bioscan 2000 Imaging System and the IC50 was calculated as above.

5-LO [5] = molecular target: T3, 5-LO; experiment: Procedure III: 5-LO (5-HETE) in intact RBL-1 cells; assay type: cell-based; settings: calcium ionophore A 23187, read-out: Proc. III 5-LO IC50
Method: as §3, §4

Row | SMILES | pIC50 [1] | inhibition at 10 µM (CO [2]) | inhibition at 10 µM (5-LO [3]) | pIC50 (CO [4]) | pIC50 (5-LO [5]) | inhibition at 10 µM [1] | pIC50 (CO [2]) | pIC50 (5-LO [3])
1 | COC(=O)N(O)C(C)C#Cc1cc(-c2ccc(Cl)cc2)n(-c2ccc(OC)cc2)n1 (stereo not shown) [Cpd 41, N-methoxycarbony-N-(1-(5-(4-chlorophenyl)-1-(4-methoxyphenyl)pyrazol-3-yl)-1-butyn-3-yl)hydroxylamine] | 5.79 | 84% | 77% | 6.54 | 5.06 | – | – | –
2 | COc1ccc(-n2nc(C#CCN(O)C(C)=O)cc2-c2ccc(C)cc2)cc1 [Cpd 13, N-acetyl-N-(1-(1-(4-methoxyphenyl)-5-(4-methylphenyl)pyrazol-3-yl)-1-propyn-3-yl)hydroxylamine] | – | 100% | 100% | 7.52 | 5.14 | 74% | – | –
3 | CCC(C#Cc1cc(-c2ccc(Cl)cc2)n(-c2ccc(OC)cc2)n1)N(O)C(N)=O (stereo not shown) [Cpd 11] | – | 30% | 91% | 4.15 | 5.66 | 0% | – | –
4 | COc1ccc(-n2nc(C#CC(C)N(O)C(=O)N3CCOCC3)cc2-c2ccc(Cl)cc2)cc1 (stereo not shown) [Cpd 10] | – | 58% | 81% | 5.80 | 4.92 | 14% | – | –
5 | COc1ccc(-n2nc(C#CC(C)N(O)C(=O)c3ccccc3)cc2-c2ccc(Cl)cc2)cc1 (stereo not shown) [Cpd 40] | – | – | – | 5.26 | 5.74 | 5% | 4.83 | 6.04
6 | CCOC(=O)CCC(=O)N(O)C(C)C#Cc1cc(-c2ccc(C)cc2)n(-c2ccc(OC)cc2)n1 (stereo not shown) [Cpd 22] | 5.53 | 100% | 97% | 5.00 | 5.00 | – | – | –
7 | COC(=O)N(O)C(C)C#Cc1cc(-c2ccc(C)cc2)n(-c2ccc(OC)cc2)n1 (stereo not shown) [Cpd 27] | 6.28 | – | – | 6.31 | 5.15 | – | 6.85 | 6.55
8 | COc1ccc(-n2nc(C#CC(C)N(O)C(=O)C(F)(F)F)cc2-c2ccc(C)cc2)cc1 (stereo not shown) [Cpd 23, N-trifluoroacetyl-N-(1-(1-(4-methoxyphenyl)-5-(4-methylphenyl)pyrazol-3-yl)-1-butyn-3-yl)hydroxylamine] | 6.38 | – | – | 6.72 | 4.63 | – | 7.30 | 5.78
9 | CCc1ccc(-c2cc(C#CC(C)N(O)C(=O)C(C)C)nn2-c2ccc(OC)cc2)cc1 (stereo not shown) [Cpd 30, N-isobutyryl-N-(1-(5-(4-ethylphenyl)-1-(4-methoxyphenyl)pyrazol-3-yl)-1-butyn-3-yl)hydroxylamine] | 6.23 | 73% | 93% | 6.74 | 4.88 | – | – | –
10 | CCc1ccc(-c2cc(C#CC(C)N(O)C(=O)CCl)nn2-c2ccc(OC)cc2)cc1 (stereo not shown) [Cpd 31] | 5.21 | 86% | 100% | 5.77 | 4.43 | – | – | –
11 | COc1ccc(-n2nc(C#CC(C(C)C)N(O)C(N)=O)cc2-c2ccc(C)cc2)cc1 (stereo not shown) [Cpd 4] | – | – | – | 5.92 | 5.08 | 29% | 5.34 | 6.62
12 | CCOC(=O)CCC(=O)N(O)C(C)C#Cc1cc(-c2ccc(CC)cc2)n(-c2ccc(OC)cc2)n1 (stereo not shown) [Cpd 32] | – | 52% | 97% | 4.85 | 5.29 | 3% | – | –
13 | COC(=O)N(O)CC#Cc1cc(-c2ccc(C)cc2)n(-c2ccc(OC)cc2)n1 [Cpd 17, N-methoxycarbonyl-N-(1-(1-(4-methoxyphenyl)-5-(4-methylphenyl)pyrazol-3-yl)-1-propyn-3-yl)hydroxylamine] | – | 100% | 100% | 6.55 | 5.06 | 74% | – | –
14 | COc1ccc(-n2nc(C#CC(C)N(O)C(N)=O)cc2-c2ccc(C)cc2)cc1 (stereo not shown) [Cpd 2, N-hydroxy-N-(1-(1-(4-methoxyphenyl)-5-(4-methylphenyl)pyrazol-3-yl)-1-butyn-3-yl)urea] | – | – | – | 5.85 | 5.11 | 10% | 5.03 | 6.43
